{
  "source": "paper PMC7911959",
  "about": "“Selective Inhibition of Human Monoamine Oxidase B by 5-hydroxy-2-methyl-chroman-4-one Isolated from an Endogenous Lichen Fungus Daldinia fissa” (Journal of Fungi, 2021)",
  "key": {"horse serum BChE": {"molecular_target": "T1, horse serum BChE (Equus caballus, UniProt P81908)", "T1 construct": "electric eel AChE and horse serum BChE were used; purchased Sigma-Aldrich; host or cells: horse serum", "T1 sequence (P81908 whole entry)": "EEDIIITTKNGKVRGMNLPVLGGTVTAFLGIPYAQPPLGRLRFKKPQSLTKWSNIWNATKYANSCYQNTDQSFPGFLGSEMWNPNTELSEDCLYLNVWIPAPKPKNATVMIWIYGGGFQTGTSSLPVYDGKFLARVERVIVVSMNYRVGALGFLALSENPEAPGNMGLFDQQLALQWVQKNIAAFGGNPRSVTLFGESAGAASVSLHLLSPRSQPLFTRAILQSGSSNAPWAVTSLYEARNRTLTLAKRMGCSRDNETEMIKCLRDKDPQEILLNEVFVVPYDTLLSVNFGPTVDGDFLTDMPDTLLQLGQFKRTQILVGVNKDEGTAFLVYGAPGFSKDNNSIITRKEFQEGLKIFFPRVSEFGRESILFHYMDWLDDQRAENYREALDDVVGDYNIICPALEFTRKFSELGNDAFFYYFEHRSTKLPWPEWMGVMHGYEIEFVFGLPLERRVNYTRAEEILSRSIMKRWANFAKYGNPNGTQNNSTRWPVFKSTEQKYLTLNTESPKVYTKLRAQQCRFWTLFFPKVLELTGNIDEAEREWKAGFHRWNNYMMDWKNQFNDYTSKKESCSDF", "test": "biochemical", "description": "(§1) For cholinesterase activity assay, electric eel AChE and horse serum BChE were used. Activities were measured according to the Ellman method, with slight modifications, in 50 mM sodium phosphate buffer (pH 7.5). After adding cholinesterase enzymes and the inhibitor, pre-incubation was applied for 15 min. After adding 0.5 mM 5,5-dithiobis (2-nitrobenzoic acid) (DTNB) 0.5 mM for color development, 0.5 mM acetyl thiocholine iodide (ATCI) or 0.5 mM butyrylthiocholine iodide (BTCI) was used as a substrate."}, "electric eel AChE": {"molecular_target": "T2, electric eel AChE (Electrophorus electricus, UniProt O42275)", "T2 construct": "purchased Sigma-Aldrich", "T2 sequence (O42275 24-633)": "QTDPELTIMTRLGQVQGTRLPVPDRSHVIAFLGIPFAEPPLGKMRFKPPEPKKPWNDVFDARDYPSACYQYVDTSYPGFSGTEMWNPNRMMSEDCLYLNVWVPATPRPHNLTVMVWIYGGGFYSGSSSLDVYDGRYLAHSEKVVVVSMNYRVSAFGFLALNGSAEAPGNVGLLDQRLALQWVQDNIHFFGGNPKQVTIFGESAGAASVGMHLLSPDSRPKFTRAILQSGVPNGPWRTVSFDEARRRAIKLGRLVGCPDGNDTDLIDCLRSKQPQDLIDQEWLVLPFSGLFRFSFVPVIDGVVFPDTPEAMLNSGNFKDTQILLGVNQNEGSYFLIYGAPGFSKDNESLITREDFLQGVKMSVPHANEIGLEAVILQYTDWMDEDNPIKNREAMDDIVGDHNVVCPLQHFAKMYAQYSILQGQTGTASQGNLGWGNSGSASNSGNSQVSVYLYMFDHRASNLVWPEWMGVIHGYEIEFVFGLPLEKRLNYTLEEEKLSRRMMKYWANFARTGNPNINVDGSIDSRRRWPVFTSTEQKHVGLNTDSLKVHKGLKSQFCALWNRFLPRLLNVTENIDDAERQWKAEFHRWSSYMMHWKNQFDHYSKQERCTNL", "test": "biochemical", "description": "as §1"}, "Human recombinant MAO-A": {"molecular_target": "T3, Human recombinant MAO-A (Homo sapiens, UniProt P21397)", "T3 construct": "purchased Sigma-Aldrich", "T3 sequence (P21397 1-527)": "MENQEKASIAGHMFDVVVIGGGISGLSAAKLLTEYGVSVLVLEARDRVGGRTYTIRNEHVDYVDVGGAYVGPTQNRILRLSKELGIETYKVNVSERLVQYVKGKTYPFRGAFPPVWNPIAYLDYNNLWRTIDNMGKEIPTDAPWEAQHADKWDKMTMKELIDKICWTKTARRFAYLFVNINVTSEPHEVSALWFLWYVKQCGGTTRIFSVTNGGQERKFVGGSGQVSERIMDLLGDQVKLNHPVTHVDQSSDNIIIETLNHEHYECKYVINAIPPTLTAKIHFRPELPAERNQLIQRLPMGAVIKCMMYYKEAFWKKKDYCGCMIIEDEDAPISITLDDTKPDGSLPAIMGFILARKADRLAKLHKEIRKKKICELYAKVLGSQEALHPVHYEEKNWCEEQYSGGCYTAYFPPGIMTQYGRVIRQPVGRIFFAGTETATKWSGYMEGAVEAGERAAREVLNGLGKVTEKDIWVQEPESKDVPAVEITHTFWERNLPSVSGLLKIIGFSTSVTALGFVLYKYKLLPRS", "test": "MAO-A activity assay (kynuramine, 316 nm)", "assay_type": "biochemical", "description": "(§2) Human recombinant MAO-A and MAO-B enzymes were used, and the activities were measured in a final volume of 500 µL of 100 mM sodium phosphate buffer of pH 7.2, and 0.06 mM kynuramine (MAO-A), or 0.3 mM benzylamine (MAO-B).\n(§3) The inhibitory activities of the isolated compounds were analyzed at a concentration of 2 µg/mL."}, "BACE-1": {"tested_on": "T4, BACE-1", "T4 construct": "purchased Sigma-Aldrich", "test": "BACE-1 activity assay (detection kit, fluorescence)", "assay_type": "biochemical", "details": "isolated compounds, residual activity at 10 µg/mL (footnote a)", "description": "BACE-1 assay was carried out using the BACE-1 activity detection kit and a fluorescence spectrometer (FS-2, Scinco, Seoul, Korea) by an excitation at 320 nm and an emission at 405 nm, after the reaction for 2 h at 37 °C [24]."}, "[1]": {"tested_on": "HL-60 (human acute promyelocytic leukemia) cells", "test": "Cytotoxicity, CCK-8 assay, HL-60", "assay_type": "cell-based", "details": "50 µM, 24 h treatment, CCK-8 4 h", "description": "(§4) Cell viability was determined according to the cell counting kit (CCK)-8 assay method, using MDCK (Madin–Darby canine kidney) and HL-60 (human acute promyelocytic leukemia) cells, as normal and cancer cells, respectively. Briefly, MDCK and HL-60 cells were resuspended in Dulbecco’s modified eagle medium (DMEM) and Roswell Park Memorial Institute (RPMI)-1640, respectively, at 1 × 10^5 and 3 × 10^5 cells/mL, respectively. The cell suspension (100 µL) was added to each well of the 96-well plate and was incubated for 24 h at 5% CO2 and 37 °C. After incubation, 100 µL of the medium supplemented with 1, 3, 10, 30, and 50 µM of the compound was added to each well and incubated again. After 24 h, 100 µL of the solution was removed from each well, and CCK-8 (10 µL/well) was dispensed. After 2~4 h, the absorbance was detected at 450 nm with a microplate reader (Versamax, Molecular Devices, CA, USA)."}, "Human recombinant MAO-B": {"molecular_target": "T5, Human recombinant MAO-B (Homo sapiens, UniProt P27338)", "T5 construct": "purchased Sigma-Aldrich", "T5 sequence (P27338 1-520)": "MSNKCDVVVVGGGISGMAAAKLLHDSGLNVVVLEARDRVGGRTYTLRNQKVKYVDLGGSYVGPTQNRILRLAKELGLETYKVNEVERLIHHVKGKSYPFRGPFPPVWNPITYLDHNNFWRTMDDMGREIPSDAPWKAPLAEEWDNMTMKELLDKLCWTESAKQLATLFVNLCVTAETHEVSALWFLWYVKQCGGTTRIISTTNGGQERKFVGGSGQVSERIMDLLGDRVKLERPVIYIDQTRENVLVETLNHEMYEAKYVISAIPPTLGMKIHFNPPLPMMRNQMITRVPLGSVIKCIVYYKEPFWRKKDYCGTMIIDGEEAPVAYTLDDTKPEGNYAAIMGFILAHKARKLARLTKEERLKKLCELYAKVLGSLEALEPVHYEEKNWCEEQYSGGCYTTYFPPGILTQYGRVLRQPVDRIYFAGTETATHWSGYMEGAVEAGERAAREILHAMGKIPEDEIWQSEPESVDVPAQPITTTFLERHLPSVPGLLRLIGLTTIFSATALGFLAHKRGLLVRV", "test": "MAO-B activity assay (benzylamine, 250 nm)", "assay_type": "biochemical", "description": "as §2, §3"}, "[2]": {"test": "DPPH antioxidant activity assay", "details": "isolated compounds, 100 µg/mL (footnote b)", "description": "The antioxidant activity was measured at 100 µg/mL of the extracts using 0.1 mM 2,2-diphenyl-1-picrylhydrazyl (DPPH). After 15 min of pre-incubation, absorbance was measured at 517 nm."}, "MAO-B [3]": {"tested_on": "T6, MAO-B", "T6 construct": "purchased Sigma-Aldrich", "test": "Inhibitor reversibility analysis by dialysis", "assay_type": "biochemical, human", "details": "for MAO-B activity recovered after dialysis: ~2× IC50, dialyzed; for MAO-B activity before dialysis (undialyzed): ~2× IC50, undialyzed"}, "[4]": {"tested_on": "MDCK (Madin–Darby canine kidney) cells", "test": "Cytotoxicity, CCK-8 assay, MDCK", "assay_type": "cell-based", "details": "50 µM, 24 h treatment, CCK-8 3 h", "description": "as §4"}, "MAO-B [5]": {"molecular_target": "T6, MAO-B", "details": "co-crystallized ligand of PDB 4A79; reference not given; cited from earlier work"}, "liver or brain MAO": {"tested_on": "liver or brain MAO", "details": "read-out: IC50 MAO enzyme; cited from earlier work"}, "monoamine oxidase": {"molecular_target": "monoamine oxidase", "parameters": "method as in PMID 27520493", "details": "cited from earlier work"}},
  "note": "Entries after “also recorded” stand apart in the source; their conditions may differ.",
  "data": [
    {"smiles": "CC1CC(=O)c2c(O)cccc2O1", "note": "(centres unmarked) [HMC, 5-hydroxy-2-methyl-chroman-4-one]", "values": [
      {"measurement": "IC50", "setting": "horse serum BChE", "value": "> 40", "unit": "µM"},
      {"measurement": "remaining activity at 2 µg/mL", "setting": "horse serum BChE; isolated compounds, 2 µg/mL, read-out: Residual Activity at 2 µg/mL (%) BChE", "value": "83.8 ± 5.89", "unit": "%"},
      {"measurement": "IC50", "setting": "electric eel AChE", "value": "> 40", "unit": "µM"},
      {"measurement": "remaining activity at 2 µg/mL", "setting": "electric eel AChE; isolated compounds, 2 µg/mL, read-out: Residual Activity at 2 µg/mL (%) AChE", "value": "73 ± 1.13", "unit": "%"},
      {"measurement": "IC50", "setting": "Human recombinant MAO-A", "value": "14 ± 2.07", "unit": "µM"},
      {"measurement": "remaining activity at 2 µg/mL", "setting": "Human recombinant MAO-A; isolated compounds, 2 µg/mL, read-out: Residual Activity at 2 µg/mL (%) MAO-A", "value": "55.8 ± 0.91", "unit": "%"},
      {"measurement": "Residual Activity (%) BACE-1", "setting": "BACE-1", "value": "98.6 ± 2.04", "unit": "%"},
      {"measurement": "Cell viability, HL-60", "setting": "[1]", "value": "No cytotoxicity; also recorded: not decreased at all"},
      {"measurement": "IC50", "setting": "Human recombinant MAO-B", "value": "3.23 ± 0.3", "unit": "µM"},
      {"measurement": "Inhibition pattern (Lineweaver–Burk plots)", "setting": "Human recombinant MAO-B; MAO-B", "value": "competitive inhibitor"},
      {"measurement": "remaining activity at 2 µg/mL", "setting": "Human recombinant MAO-B; isolated compounds, 2 µg/mL, read-out: Residual Activity at 2 µg/mL (%) MAO-B", "value": "13.2 ± 0.48", "unit": "%"},
      {"measurement": "Time-dependency: residual activities after preincubation", "setting": "Human recombinant MAO-B; preincubation up to 30 min", "value": "not changed significantly"},
      {"measurement": "Selectivity for MAO-B compared to MAO-A", "setting": "Human recombinant MAO-B; ratio of IC50 values", "value": "~ 4 fold"},
      {"measurement": "Ki", "setting": "Human recombinant MAO-B; secondary plot of Lineweaver–Burk slopes vs inhibitor concentration", "value": 0.896, "unit": "µM"},
      {"measurement": "% Inhibition DPPH", "setting": "[2]", "value": "25.11 ± 2.12", "unit": "%"},
      {"measurement": "Reversibility of MAO-B inhibition", "setting": "MAO-B [3]; dialysis, ~2× IC50", "value": "reversible inhibitor"},
      {"measurement": "MAO-B activity recovered after dialysis", "setting": "MAO-B [3]", "value": 80.6, "unit": "%"},
      {"measurement": "MAO-B activity before dialysis (undialyzed)", "setting": "MAO-B [3]", "value": 23.1, "unit": "%"},
      {"measurement": "Cell viability, MDCK", "setting": "[4]", "value": "No cytotoxicity; also recorded: not decreased at all"}
    ]},
    {"smiles": "NCCNC(=O)c1ccc(Cl)cn1", "note": "[Lazabemide, reference compound]", "values": [
      {"measurement": "MAO-B activity recovered after dialysis", "setting": "MAO-B [3]", "value": 74.4, "unit": "%"},
      {"measurement": "MAO-B activity before dialysis (undialyzed)", "setting": "MAO-B [3]", "value": 26.0, "unit": "%"}
    ]},
    {"smiles": "CCc1ccc(CCOc2ccc(CC3SC(=O)NC3=O)cc2)nc1", "note": "(centres unmarked) [P1B, pioglitazone]", "values": [
      {"measurement": "Ki", "setting": "MAO-B [5]", "value": 0.5, "unit": "µM"}
    ]},
    {"smiles": "C#CCN(C)Cc1ccccc1", "note": "[Pargyline, reference compound]", "values": [
      {"measurement": "MAO-B activity recovered after dialysis", "setting": "MAO-B [3]", "value": "not recovered at all"}
    ]},
    {"smiles": "CCCCCC(=O)c1c(O)cc2c(c1O)C(=O)c1c(O)cc(OC)cc1C2=O", "note": "[Solorinic acid]", "values": [
      {"measurement": "IC50", "setting": "liver or brain MAO", "value": 14.3, "unit": "µM"}
    ]},
    {"smiles": "CC1Cc2cccc(O)c2C(=O)O1", "note": "(centres unmarked) [mellein, Mellein]", "values": [
      {"measurement": "IC50", "setting": "monoamine oxidase", "value": 50.2, "unit": "µM"},
      {"measurement": "IC50 monoamine oxidase", "setting": "monoamine oxidase", "value": 8.93, "unit": "µg/mL"}
    ]}
  ]
}
